In patent US20070128217A1 (priority 2003, published 2007):

Tests used:
[1] = test system: control sera (pooled serum of ten healthy LUMC hospital workers; commercial negative donor pooled serum from the Dutch bloodbank); type: binding, human; set-up: Binding of Control serum LUMC to linear peptides / Binding of Control serum Blood-bank to linear peptides / Binding of Control serum LUMC to looped peptides / Binding of Control Serum Blood-Bank to Looped peptides / Binding of Control serum LUMC to linear peptides of the protein M of SARS-CoV Urbani / Binding of Control serum Blood-bank to linear peptides of the protein M of SARS-CoV Urbani / Binding of Control serum LUMC to looped peptides of the protein M of SARS-CoV Urbani / Binding of Control Serum Blood-Bank to Looped peptides of the protein M of SARS-CoV Urbani: unit not given here
[2] = test system: antibodies in sera from SARS patients (sera 1a, 1b, 2, 6, 37, 62, London, SARS-yellow, SARS-green); type: binding, human; set-up: Binding of serum 6 to linear peptides of protein X1 of SARS-CoV Urbani / Binding of serum 37 to linear peptides of protein X1 of SARS-CoV Urbani / Binding of serum 6 to looped/cyclic peptide (PEPSCAN-ELISA) / Binding of serum 37 to looped/cyclic peptide (PEPSCAN-ELISA) / Binding of serum 37 to looped/cyclic peptides of protein X1 of SARS-CoV Urbani / Binding of serum 6 to linear peptides of protein X2 / Binding of serum 37 to linear peptides of protein X2 / Binding of serum 37 to looped/cyclic peptides of protein X2 of SARS-CoV Urbani / Binding of serum 6 to linear peptides of protein M of SARS-CoV Urbani / Binding of serum 37 to linear peptides of protein M of SARS-CoV Urbani / Binding of serum 6 to looped/cyclic peptides of protein M of SARS-CoV Urbani / Binding of serum 37 to looped/cyclic peptides of protein M of SARS-CoV Urbani / Binding of serum 6 to linear peptides of protein X3 of SARS-CoV Urbani / Binding of serum 37 to linear peptides of protein X3 of SARS-CoV Urbani / Binding of serum 37 to looped/cyclic peptides of protein X3 of SARS-CoV Urbani / Binding of serum 6 to linear peptides of protein X4 of SARS-CoV Urbani / Binding of serum 37 to linear peptides of protein X4 of SARS-CoV Urbani / Binding of serum 37 to looped/cyclic peptides of protein X4 of SARS-CoV Urbani / Binding of serum 6 to linear peptides of protein X5 of SARS-CoV Urbani / Binding of serum 37 to linear peptides of protein X5 of SARS-CoV Urbani / Binding of serum 37 to looped/cyclic peptides of protein X5 of SARS-CoV Urbani / Binding of serum 6 to linear peptides of protein N of SARS-CoV Urbani / Binding of serum 37 to linear peptides of protein N of SARS-CoV Urbani / Binding of serum 6 to linear peptide (PEPSCAN-ELISA) / Binding of serum 1a to looped/cyclic peptides of protein N of SARS-CoV Urbani / Binding of serum 1b to looped/cyclic peptides of protein N of SARS-CoV Urbani / Binding of serum 2 to looped/cyclic peptides of protein N of SARS-CoV Urbani / Binding of serum 6 to looped/cyclic peptides of protein N of SARS-CoV Urbani / Binding of serum 37 to looped/cyclic peptides of protein N of SARS-CoV Urbani / Binding of serum 62 to looped/cyclic peptides of protein N of SARS-CoV Urbani / Binding of serum London to looped/cyclic peptides of protein N of SARS-CoV Urbani / Binding of serum SARS-green to looped/cyclic peptides of protein N of SARS-CoV Urbani: unit not given here
[3] = test system: rabbit serum obtained by immunizing a rabbit with the SARS-CoV strain Frankfurt 1; type: binding; set-up: Binding of a rabbit serum to linear peptides / Binding of a rabbit serum to looped peptides / Rabbit serum linear peptides / Rabbit serum looped peptides / Binding of a rabbit serum to linear peptides of protein N of SARS-CoV Urbani (Rabbit serum linear peptides) / Binding of a rabbit serum to looped/cyclic peptides of protein N of SARS-CoV Urbani (Rabbit serum looped peptides): unit not given here
[4] = test system: recombinant human anti-SARS-CoV antibody 03-018; type: binding; set-up: Binding of antibody 03-018 to linear peptides of the N protein of SARS-CoV Urbani / Binding of antibody 03-018 to looped/cyclic peptides of the N protein of SARS-CoV Urbani: unit not given here

## YAEGSRGGSQASSRS
[1]
  Binding of Control Serum Blood-Bank to Looped peptides: 0.4
  Binding of Control serum Blood-bank to linear peptides: 0.9
  Binding of Control serum LUMC to linear peptides: 0.7
  Binding of Control serum LUMC to looped peptides: 0.6
[2]
  Binding of serum 1a to linear peptide (PEPSCAN-ELISA): 0.3
  Binding of serum 1a to looped/cyclic peptides of protein N of SARS-CoV Urbani: 0.3
  Binding of serum 1b to linear peptide (PEPSCAN-ELISA): 0.1
  Binding of serum 1b to looped/cyclic peptides of protein N of SARS-CoV Urbani: 0.2
  Binding of serum 2 to linear peptide (PEPSCAN-ELISA): 0.3
  Binding of serum 2 to looped/cyclic peptides of protein N of SARS-CoV Urbani: 0.3
  Binding of serum 6 to linear peptide (PEPSCAN-ELISA): 0.4
  Binding of serum 6 to looped/cyclic peptides of protein N of SARS-CoV Urbani: 0.2
  Binding of serum 37 to linear peptide (PEPSCAN-ELISA): 0.7
  Binding of serum 37 to looped/cyclic peptides of protein N of SARS-CoV Urbani: 0.4
  Binding of serum 62 to linear peptide (PEPSCAN-ELISA): 0.7
  Binding of serum 62 to looped/cyclic peptides of protein N of SARS-CoV Urbani: 0.2
  Binding of serum London to linear peptide (PEPSCAN-ELISA): 0.5
  Binding of serum London to looped/cyclic peptides of protein N of SARS-CoV Urbani: 0.3
  Binding of serum SARS-green to linear peptide (PEPSCAN-ELISA): 0.6
  Binding of serum SARS-green to looped/cyclic peptides of protein N of SARS-CoV Urbani: 0.3
  Binding of serum SARS-yellow to linear peptide (PEPSCAN-ELISA): 0.6
  Binding of serum SARS-yellow to looped/cyclic peptides of protein N of SARS-CoV Urbani: 0.1
[3]
  Binding of a rabbit serum to linear peptides of protein N of SARS-CoV Urbani (Rabbit serum linear peptides): 0.2
  Binding of a rabbit serum to looped/cyclic peptides of protein N of SARS-CoV Urbani (Rabbit serum looped peptides): 0.0
[4]
  Binding of antibody 03-018 to linear peptides of the N protein of SARS-CoV Urbani: 0.1
  Binding of antibody 03-018 to looped/cyclic peptides of the N protein of SARS-CoV Urbani: 0.2

## YFYYLGTGPEASLPY
[1]
  Binding of Control Serum Blood-Bank to Looped peptides: 0.7
  Binding of Control serum Blood-bank to linear peptides: 0.7
  Binding of Control serum LUMC to linear peptides: 0.6
  Binding of Control serum LUMC to looped peptides: 0.8
[2]
  Binding of serum 1a to linear peptides of protein N of SARS-CoV Urbani: 0.3
  Binding of serum 1a to looped/cyclic peptides of protein N of SARS-CoV Urbani: 0.4
  Binding of serum 1b to linear peptides of protein N of SARS-CoV Urbani: 0.1
  Binding of serum 1b to looped/cyclic peptides of protein N of SARS-CoV Urbani: 0.3
  Binding of serum 2 to linear peptides of protein N of SARS-CoV Urbani: 0.3
  Binding of serum 2 to looped/cyclic peptides of protein N of SARS-CoV Urbani: 0.5
  Binding of serum 6 to linear peptides of protein N of SARS-CoV Urbani: 0.2
  Binding of serum 6 to looped/cyclic peptides of protein N of SARS-CoV Urbani: 0.3
  Binding of serum 37 to linear peptides of protein N of SARS-CoV Urbani: 0.7
  Binding of serum 37 to looped/cyclic peptides of protein N of SARS-CoV Urbani: 0.9
  Binding of serum 62 to linear peptides of protein N of SARS-CoV Urbani: 0.8
  Binding of serum 62 to looped/cyclic peptides of protein N of SARS-CoV Urbani: 0.7
  Binding of serum London to linear peptides of protein N of SARS-CoV Urbani: 0.4
  Binding of serum London to looped/cyclic peptides of protein N of SARS-CoV Urbani: 0.4
  Binding of serum SARS-green to linear peptides of protein N of SARS-CoV Urbani: 0.0
  Binding of serum SARS-green to looped/cyclic peptides of protein N of SARS-CoV Urbani: 0.4
  Binding of serum SARS-yellow to linear peptides of protein N of SARS-CoV Urbani: 0.7
  Binding of serum SARS-yellow to looped/cyclic peptides of protein N of SARS-CoV Urbani: 0.6
[3]
  Binding of a rabbit serum to linear peptides of protein N of SARS-CoV Urbani (Rabbit serum linear peptides): 0.1
  Binding of a rabbit serum to looped/cyclic peptides of protein N of SARS-CoV Urbani (Rabbit serum looped peptides): 0.6
[4]
  Binding of antibody 03-018 to linear peptides of the N protein of SARS-CoV Urbani: 0.1
  Binding of antibody 03-018 to looped/cyclic peptides of the N protein of SARS-CoV Urbani: 0.2
